In article PMC11847542 (2025):

Tests used:
[1] = system: KRAS RNA G4-c (KRAS RG4) (RNA, G4) AAGGUGGCGGCGGCUCG; test: CD melting; conditions: 1 mM K+, 10 mM Tris-HCl pH 7.4, 2 μM RNA
[2] = system: KRAS RNA G4-c (KRAS RG4) (RNA, G4) AAGGUGGCGGCGGCUCG; test: thiazole orange displacement, fluorescence; conditions: 100 mM K+; 10 mM Tris-HCl pH 7.4; 0.25 μM RNA; tracer 0.5 μM thiazole orange displaced
[3] = system: DNA hairpin (DNA, hairpin) CGCGCGCGTTTTCGCGCGCG; test: competition: fluorescence recovery of MBD-quenched Cy5-labeled KRAS RG4; conditions: 100 mM K+; 10 mM Tris-HCl pH 7.4; DNA hairpin added as competitor to 1 μM Cy5-G4-c with MBD
[4] = system: 3'-Cy5-labeled KRAS RG4 (G4-c) (RNA, G4) AAGGUGGCGGCGGCUCG; test: fluorescence quenching titration of Cy5; conditions: 100 mM K+; 10 mM Tris-HCl pH 7.4; 1 μM RNA
[5] = system: 5'-Cy5-labeled KRAS RG4 (G4-c) (RNA, G4) AAGGUGGCGGCGGCUCG; test: fluorescence quenching titration of Cy5; conditions: 100 mM K+; 10 mM Tris-HCl pH 7.4; 1 μM RNA
[6] = system: RNA hairpin (RNA, hairpin) GGCCGCCGCAGUGGCGGCGG; test: competition: fluorescence recovery of MBD-quenched Cy5-labeled KRAS RG4; conditions: 100 mM K+; 10 mM Tris-HCl pH 7.4; RNA hairpin added as competitor to 1 μM Cy5-G4-c with MBD
[7] = system: KRAS RNA G4-c (KRAS RG4) (RNA, G4) AAGGUGGCGGCGGCUCG; test: 1H NMR, imino protons; conditions: K+ (potassium phosphate, concentration not stated), 10% D2O, 25 °C, 200 μM RNA, 1 to 5 equivalents
[8] = system: KRAS RNA G4-c (KRAS RG4) (RNA, G4) AAGGUGGCGGCGGCUCG; test: EMSA; conditions: 15% native PAGE, Tris-borate-EDTA; 10 μM RNA, 0-50 μM compound
[9] = system: KRAS RNA G4-a (RNA, G4) GCGGCGGCGGAGGCAGCA; test: CD melting; conditions: 1 mM K+; 10 mM Tris-HCl pH 7.4; 2 μM RNA, 10 μM compound; Tm alone 66.0 °C
[10] = system: KRAS RNA G4-b (RNA, G4) GGCGGCGGCAGUGGCGGCGG; test: CD melting; conditions: 1 mM K+; 10 mM Tris-HCl pH 7.4; 2 μM RNA, 10 μM compound; Tm alone 59.5 °C

| SMILES | binding [1] | EC50 [2] [nM] | other results |
| --- | --- | --- | --- |
| COc1cc2nc3c4ccc(N5CCC(C)CC5)cc4c4cc([N+]5(C)CCC(C)CC5)ccc4c3nc2cc1OC (stereo not shown) | yes | 1400 | – |
| CC1CCN(c2ccc3c(c2)c2cc([N+]4(C)CCC(C)CC4)ccc2c2nc4ccccc4nc32)CC1 (stereo not shown) | weak | 1800 | – |
| CC1CCN(c2ccc3c(c2)c2cc([N+]4(C)CCC(C)CC4)ccc2c2nc4cc(F)c(F)cc4nc32)CC1 (stereo not shown) | weak | 3300 | – |
| CC1CCN(c2ccc3c(c2)c2cc([N+]4(C)CCC(C)CC4)ccc2c2nc4cc5ccccc5cc4nc32)CC1 (stereo not shown) | – | 1500 | binding [3]: no; binding [4]: yes; binding [5]: yes; binding [6]: no; binding [7]: yes; binding [8]: yes; binding [9]: yes; ΔTm ([1]; 10 μM compound, Tm alone 64.1 °C): 11.0 °C; binding [10]: yes |
| Cc1cc2nc3c4ccc(N5CCC(C)CC5)cc4c4cc([N+]5(C)CCC(C)CC5)ccc4c3nc2cc1C (stereo not shown) | yes | 1500 | – |
| CC1CCN(c2ccc3c(c2)c2cc(N4CCC(C)CC4)ccc2c2nc4cc5ccccc5cc4nc32)CC1 | no | 45000 | – |
| CC1CCN(c2ccc3c(c2)c2cc([N+]4(C)CCC(C)CC4)ccc2c2nc4cc(Cl)c(Cl)cc4nc32)CC1 (stereo not shown) | weak | 7000 | – |
